Measurements from US11306074B2, “Chemical and method for analyzing DNA sequence by visualizing single-molecule DNA and use thereof” (SOGANG UNIVERSITY RESEARCH FOUNDATION, priority 2018, dated 2022).

Assays:
[1] = system: λ DNA; conditions: for staining / visualization of λ DNA molecules: λ DNA (48.5 kbp) tethered, 1×TE flow 100 μL/minute, 70 μM dye solution mixed 1:1, 20-fold diluted, FIGS. 2a-2c
Protocol: An inverted microscope (Olympus IX70, Tokyo, Japan) with 60× Olympus UPlanSApo oil immersion objectives illuminated with an LED light source (SOLA SM II light engine, Lumencor, Beaverton, Oreg., USA) was used. The light was passed through corresponding filter sets (Semrock, Rochester, N.Y., USA) to set the excitation and emission wavelengths. A maximum light intensity of 140 mW/cm^2 was measured. Fluorescence microscopic images were taken with an electron-multiplying charge-coupled device digital camera (Evolve EMCCD, Roper Scientific, Tucson, Ariz., USA) and stored in a 16-bit TIFF format using the software Micro-manager. For image processing and analysis, ImageJ software with Java plug-ins and python programs developed by the present inventors were utilized.
First, λ DNA (NCBI: NC_001416.1) was diluted to a concentration of 5 ng/μL (0.16 nM; base pair 7.76 μM) in 1×TE (10 mM Tris, 1 mM EDTA, pH 8.0) and mixed at a volume ratio of 1:1 with 70 μM of the Preparation Example solution. Next, the mixture was incubated at room temperature for 15 min and 20-fold diluted with 4% […] (β-ME) in 1×TE.
Separately, a flow chamber (5×10×0.1 mm (L×W×H)) was prepared by placing an acrylic support on an acid-cleaned cover slip, with the walls formed by double-sided tape, An NE-1000 syringe pump (New Era Pump Systems Inc., Wantagh, N.Y.) was used to control the buffer.
Thereafter, 40 μg/mL biotinylated bovine serum albumin (BSA) was injected and incubated at room temperature for 10 min, after which a dilution of 20 μg/mL Neutravidin in T50 solution (10 mM Tris, […], pH 8.0) was injected to the flow chamber and incubated at room temperature for 10 min.
Then, 1 μM of λ DNA overhang oligo (5′-p-[…]-Triethyleneglycol-biotin-3′) was loaded into the flow chamber and maintained at room temperature for 10 minutes. λ DNA, 200 U of T4 DNA ligase, and reaction buffer were added and incubated at room temperature for 30 minutes.
Stained DNA molecules were visualized under a continuous flow of 1×TE (100 μl/minute).

[2] = system: λ DNA genome
Description: Python Program • ImageCompare.py: a library of functions, • seq2map.py: to convert a FASTA file into a A/T frequency in silico map wherein a selected sequence is represented in white for high frequency regions and in black for low frequency regions. • insilicoMapFolder.py: to scan and compare in silico image files and DNA images obtained through experiments with respect to all images in the folder, to search positions of sites having the highest cross-correlation coefficient, to convert the values, and to store the values in new record files. • sortView.py: to read record files obtained with the insilicoMapFolder.py, to compare signals, to search cross-correlation coefficients, and to visualize image comparison in a new window. • randomtiff.py: to generate random intensity tiff images
Cross-correlation (cc) coefficient values calculated by comparing the alignment of 20 molecular images of above three kinds of binding sequences (W, W4 and W9) with the genome. The control cross-correlation coefficient (hereinafter referred to as cc) was obtained by comparing the 100 computer-generated random sequences with the in silico images (***P<0.0001 for random-sequences paired t-test).

[3] = system: polytene chromosomes from the Drosophila melanogaster salivary gland; conditions: 2.5 μM in 4% β-ME; tangled and spread polytene chromosomes; FIG. 5a
Description: For comparison with DAPI, which is conventionally used to visualize polytene chromosomes on a fluorescence microscope, the polytene chromosomes from the Drosophila melanogaster salivary gland were stained with the compound.
In brief, dissected salivary glands from third larvae of Drosophila melanogaster were fixed with a solution containing a 1:2:3 ratio of propionic acid, deionized water, and acetic acid on a positively charged coverslip. Then, the cells were located between a slide glass and the coverslip and then the individual cells were gently spread. After moving the coverslip back and forth on the slide glass, the spread cells were squashed for up to 15 minutes. Then, the slide glass and coverslip were slightly dipped into liquid nitrogen. Just after no more bubbles were generated, the cover slip was removed from the slide glass.

With `CN(C)CCCNC(=O)c1cc(NC(=O)c2cc(NC(=O)c3cc(NC(=O)c4cc(NC(=O)CCNC(=O)CCNC(=O)c5ccc(C(=O)[O-])c(-c6c7ccc(=[N+](C)C)cc-7oc7cc(N(C)C)ccc67)c5)cn4C)cn3C)cn2C)cn1C` [Comparative Example 1, (5-carboxytetramethylrhodamine)-(β-alanine)2-(N-methylpyrrole)4-(3-(dimethylamino)propylamine), reference compound] as the compound, how does the “staining / visualization of λ DNA molecules” value [1] read?
The value was “stained only in part AT-rich regions and bound undesired regions”.

What does the source list for `CN(C)CCCNC(=O)c1cc(NC(=O)c2cc(NC(=O)c3cc(NC(=O)c4cc(NC(=O)CCNC(=O)c5cc(NC(=O)c6cc(NC(=O)c7cc(NC(=O)c8cc(NC(=O)CCNC(=O)CCNC(=O)c9ccc(-c%10c%11ccc(=[N+](C)C)cc-%11oc%11cc(N(C)C)ccc%10%11)c(C(=O)[O-])c9)cn8C)cn7C)cn6C)cn5C)cn4C)cn3C)cn2C)cn1C` [Preparation Example, (5-carboxytetramethylrhodamine)-(β-alanine)2-(N-methylpyrrole)4-(β-alanine)-(N-methylpyrrole)4-(3-(dimethylamino)propylamine)]?
staining / visualization of λ DNA molecules [1]: visualized λ DNA molecules with sequence specificity as well as enhancing the intensity of the molecules; fluorescent λ DNA image quality compared with DAPI ([1]; λ DNA images, FIG. 5b): exhibits a clear backbone compared with DAPI-stained DNA; cross-correlation coefficient (cc) of 20 molecular images aligned with λ DNA genome ([2]; W, W4, W9 maps, Python program, FIG. 3b): highest cc value for simple A/T frequency; agreement of measured fluorescence intensity with in silico binding sequence profiles (W, W4, W9) ([2]; λ genome, FIG. 3a): agrees better with simple A/T frequency than W4 and W9; staining of polytene chromosomal DNA [3]: clearly demonstrate band and interband patterns

How did the “staining / visualization of λ DNA molecules” value [1] turn out when “(5-carboxytetramethylrhodamine)-(β-alanine)2-(N-methylpyrrole)4-(5-carboxytetramethylrhodamine) [Comparative Example 2, reference compound]” was run?
The value was “did not bind double-stranded DNA at all”.
